# According to patent US20250170090A1, “METHOD FOR PREVENTING OR TREATING DISEASE OR DISORDER ASSOCIATED WITH ANTINEOPLASTIC AGENT” (ONQUALITY PHARMACEUTICALS CHINA LTD., priority 2022, published 2025):
# Like-named read-outs stand apart in the source and are kept apart here.
# What was measured:
# [1] = tested on: hand-foot syndrome caused by anti-tumor agents; experiment: Treatment of established hand-foot syndrome caused by anti-tumor agents in rats (Table 4); type: in vivo
# Description: After the rats (about 200 g) were fed and adapted for one week, the rats were divided into groups of 10 rats for gavage administration experiment. The anti-tumor agent was dissolved in a mixed solution of Cremophor EL:ethanol=1:1, and diluted with PBS to the required concentration (diluted about 3 times with PBS solution) before gavage. […] Specific experimental procedures followed those outlined in the prevention experiment. […] Table 4 lists the animal experiments using various anti-tumor agents and NO-NSAID ointment, as well as the corresponding experimental results (where the value in the control rate column=the incidence rate of hand-foot syndrome in the blank group−the incidence rate of hand-foot syndrome in the treatment group).
# [2] = tested on: human oral keratinocytes (HOK); experiment: CCK-8 cell viability: alleviation of proliferative toxicity of anti-tumor agents on HOK (Table 8-2); type: cell-based; conditions: NO-NSAID 100 μM
# Description: (§1) Experiments were conducted using various epithelial cells: Examples 47-51 used human immortalized keratinocytes (HaCaT) with corresponding results in Table 8-1; Examples 52-56 used human oral keratinocytes (HOK) with results in Table 8-2; Examples 57-61 used gastric epithelial cells (GES-1) with results in Table 8-3; Examples 62-66 used human intestinal epithelial cells (FHs 74 Int) with results in Table 8-4.
# (§2) The cultured cells were digested the suspended, counted, and seed into a 96-well plate with 5,000-10,000 cells per well. The wells are divided into the following groups: blank control group, anti-tumor agent group, anti-tumor agent+NO-NSAID group, anti-tumor agent solvent group, NO-NSAID solvent control group. Wherein each well of each group contained a basic medium, and the final liquid volume contained in each well was about 100 μL. The grouping situation was as follows: • 1) Blank control group: no solution was added except normally replacing the medium; • 2) Anti-tumor agent group: added the anti-tumor agent solution (the final concentration was shown in Table 8-1 to Table 8-4, the solvent of the anti-tumor agent solution was DMSO); • 3) Anti-tumor agent+NO-NSAID group: added the anti-tumor agent solution and the NO-NSAID solution (the final concentrations of anti-tumor agent and NO-NSAID were shown in Table 8-1 to Table 8-4, and according to the solubility of NO-NSAID, the solvent of NO-NSAID solution was selected as ethanol or sterile water, and minor volume differences in each group were adjusted by added the corresponding solvent); • 4) Anti-tumor agent solvent group: an equal volume of DMSO as contained in the corresponding anti-tumor agent solution in Group 2) was added; • 5) NO-NSAID control group: the same volume and type of solvent (for example, ethanol or sterile water) corresponding to the NO-NSAID contained in group 3) was added.
# (§3) The anti-tumor agent solvent group was not involved in data processing and was only used as a reference for evaluating experimental system error. The NO-NSAID solvent control group was used for data correction to eliminate the influence of the solvent on the results.
# (§4) After culturing for 24-48 hours, the Cell Counting Kit-8 (CCK-8) detection kit (C0037, Shanghai Beyotime Biotechnology Co., Ltd., Beyotime Biotechnology) was used to determine the cell viability. This allows for the calculation of the proliferative toxicity of anti-tumor agent on cell and the mitigating effect of NO-NSAID on proliferative toxicity. The results were statistically analyzed and plotted using GraphPad Prism 6.0 software and t test.
# [3] = tested on: hand-foot syndrome induced by anti-tumor agents; experiment: Prevention of hand-foot syndrome induced by anti-tumor agents in rats, NO-NSAID ointment on hind paws (Table 2-2); type: in vivo, SD rats; conditions: Rattus norvegicus, topical, read-out: Control rate; for responders at 1 %: ointment 1% wt; for responders at 5 %: ointment 5% wt; for responders at 3 %: ointment 3% wt
# Summary of the method: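 Female SD rats (8 weeks, ~200 g; 10/group) received anti-tumour agents by daily oral gavage in Cremophor EL:ethanol 1:1 diluted ~3× with PBS. NO-NSAID or blank ointment was applied to hind paws once daily, 4 h restrained, then wiped off. Control rate = blank-group minus treated-group hand-foot syndrome incidence.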
# [4] = tested on: gastric epithelial cells (GES-1); experiment: CCK-8 cell viability: alleviation of proliferative toxicity of anti-tumor agents on GES-1 (Table 8-3); type: cell-based, human; conditions: NO-NSAID 100 μM
# Description: as §1, §2, §3, §4
# [5] = tested on: human intestinal epithelial cells (FHs 74 Int); experiment: CCK-8 cell viability: alleviation of proliferative toxicity of anti-tumor agents on FHs 74 Int (Table 8-4); type: cell-based; conditions: NO-NSAID 100 μM
# Description: as §1, §2, §3, §4
# [6] = 120 h, Sorafenib 80 mg/kg once a day, Days 5
# [7] = 432 h, Cabozantinib 50 mg/kg once a day, Days 18
# [8] = 432 h, Lenvatinib 100 mg/kg twice a day, Days 18
# [9] = 432 h, Nintedanib 110 mg/kg once a day, Days 18
# [10] = 432 h, Regorafenib 90 mg/kg once a day, Days 18
smiles,measurement,setting,value
CC(=O)Oc1ccccc1C(=O)Oc1cccc(CO[N+](=O)[O-])c1 [Compound A2],Response rate,"[1]; Apatinib 105 mg/kg once every two days, ointment 3% wt, Days 7",33.33%
same,Response rate,"[1]; Cabozantinib 50 mg/kg once every two days, ointment 1% wt, Days 13",14.29%
same,Response rate,"[1]; Erdafitinib 45 mg/kg once every two days, ointment 3% wt, Days 13",28.57%
same,Response rate,"[1]; Fruquintinib 40 mg/kg once every two days, ointment 3% wt, Days 8",50.00%
same,Response rate,"[1]; Lenvatinib 65 mg/kg once a day, ointment 3% wt, Days 9",33.33%
same,Response rate,"[1]; Regorafenib 90 mg/kg once every two days, ointment 1% wt, Days 7",33.33%
same,Response rate,"[1]; Sorafenib 80 mg/kg once every two days, ointment 2.00% wt, Days 5",20.00%
same,Response rate,"[1]; Sunitinib 120 mg/kg once every two days, ointment 3% wt, Days 7",33.33%
same,Response rate % (average),[2]; Afatinib (10 μM),24%
same,Response rate % (average),[2]; Cabozantinib (5 μM),22%
same,Response rate % (average),[2]; Dabrafenib (10 μM),22%
same,Response rate % (average),[2]; Everolimus (5 μM),8%
same,Response rate % (average),[2]; Infigratinib (15 μM),21%
same,Response rate % (average),[2]; Lapatinib (5 μM),−8%
same,Response rate % (average),[2]; Lenvatinib (10 μM),19%
same,Response rate % (average),[2]; Olmutinib (10 μM),32%
same,Response rate % (average),[2]; Regorafenib (5 μM),3%
same,Response rate % (average),[2]; Selumetinib (5 μM),13%
same,Response rate % (average),[2]; Sorafenib (5 μM),31%
same,Response rate % (average),[2]; Sunitinib (5 μM),27%
same,responders at 1 %,[3]; [6],50%
same,responders at 2 %,"[3]; 120 h, Sorafenib 80 mg/kg once a day, ointment 2% wt, Days 5",50%
same,responders at 5 %,[3]; [6],66.7%
same,responders at 10 %,"[3]; 120 h, Sorafenib 80 mg/kg once a day, ointment 10% wt, Days 5",80%
same,responders at 3 %,"[3]; 360 h, Apatinib 105 mg/kg once a day, Days 15",50%
same,responders at 3 %,"[3]; 360 h, Encorafenib 80 mg/kg once a day, Days 15",42.9%
same,responders at 3 %,"[3]; 360 h, Lapatinib 120 mg/kg twice a day, Days 15",33.3%
same,responders at 3 %,"[3]; 360 h, Sunitinib 120 mg/kg once a day, Days 15",42.9%
same,responders at 3 %,"[3]; 384 h, Fruquintinib 40 mg/kg once a day, Days 16",71.4%
same,responders at 3 %,"[3]; 432 h, Anlotinib 20 mg/kg once a day, Days 18",66.7%
same,responders at 3 %,"[3]; 432 h, Axitinib 50 mg/kg once a day, Days 18",40%
same,responders at 1 %,[3]; [7],28.6%
same,responders at 2.5 %,"[3]; 432 h, Cabozantinib 50 mg/kg once a day, ointment 2.50% wt, Days 18",42.9%
same,responders at 5 %,[3]; [7],66.7%
same,responders at 1 %,[3]; [8],42.9%
same,responders at 3 %,[3]; [8],42.9%
same,responders at 5 %,[3]; [8],71.4%
same,responders at 1 %,[3]; [9],33.3%
same,responders at 3 %,[3]; [9],50%
same,responders at 5 %,[3]; [9],66.7%
same,responders at 1 %,[3]; [10],57.1%
same,responders at 5 %,[3]; [10],66.7%
same,responders at 3 %,"[3]; 480 h, Erdafitinib 45 mg/kg once a day, Days 20",71.4%
same,responders at 3 %,"[3]; 480 h, Olmutinib 100 mg/kg once a day, Days 20",60%
same,Response rate % (average),[4]; Afatinib (10 μM),3%
same,Response rate % (average),[4]; Cabozantinib (5 μM),27%
same,Response rate % (average),[4]; Dabrafenib (10 μM),25%
same,Response rate % (average),[4]; Everolimus (5 μM),31%
same,Response rate % (average),[4]; Infigratinib (15 μM),39%
same,Response rate % (average),[4]; Lapatinib (5 μM),16%
same,Response rate % (average),[4]; Lenvatinib (10 μM),23%
same,Response rate % (average),[4]; Olmutinib (10 μM),30%
same,Response rate % (average),[4]; Regorafenib (5 μM),18%
same,Response rate % (average),[4]; Selumetinib (5 μM),17%
same,Response rate % (average),[4]; Sorafenib (5 μM),24%
same,Response rate % (average),[4]; Sunitinib (5 μM),18%
same,Response rate % (average),[5]; Afatinib (10 μM),22%
same,Response rate % (average),[5]; Cabozantinib (5 μM),26%
same,Response rate % (average),[5]; Dabrafenib (10 μM),13%
same,Response rate % (average),[5]; Everolimus (5 μM),27%
same,Response rate % (average),[5]; Infigratinib (15 μM),20%
same,Response rate % (average),[5]; Lapatinib (5 μM),20%
same,Response rate % (average),[5]; Lenvatinib (10 μM),26%
same,Response rate % (average),[5]; Olmutinib (10 μM),25%
same,Response rate % (average),[5]; Regorafenib (5 μM),21%
same,Response rate % (average),[5]; Selumetinib (5 μM),27%
same,Response rate % (average),[5]; Sorafenib (5 μM),26%
same,Response rate % (average),[5]; Sunitinib (5 μM),36%
